From US11390624B2, “Pyrazolopyridines and triazolopyridines as A2A / A2B inhibitors” (Incyte Corporation, priority 2019, dated 2022)

Tests used:
[1] = molecular target: Adenosine A2A receptor (Tag-lite Adenosine A2A labeled cells) (Homo sapiens (Human), UniProt P29274); experiment: A2A Tag-lite HTRF Assay; assay type: binding; settings: displacement of Adenosine A2A Receptor Red antagonist fluorescent ligand, 12.5 nM
From the text: The final concentration of DMSO was 1%.

[2] = molecular target: human adenosine A2B receptor (Homo sapiens (Human), UniProt P29275); experiment: Adenosine A2B Receptor Cyclic AMP GS Assay; assay type: cell-based; settings: HEK-293 cells, agonist NECA at 12 nM, cAMP accumulation; read-out: A2B—cAMP_EC50
Experimental: Stably transfected HEK-293 cells expressing the human adenosine A2B receptor (Perkin Elmer) were maintained in MEM culture medium with 10% FBS and 100 μg/mL Geneticin (Life Technologies). 18 to 24 hours prior to assay, geneticin was removed from culture. The cisbio cAMP-GS Dynamic kit utilizing the FRET (Fluorescence Resonance Energy Transfer) technology was used to measure cAMP accumulation in the cells. Compounds of the present disclosure at an appropriate concentration were mixed with 10000 cells/well in white 96 well half area plates (Perkin Elmer) for 30 min at room temperature gently shaking. Agonist, NECA (R&D Technologies) at 12 nM was added to each well for 60 min at room temperature gently shaking. Detection reagents, d2-labeled cAMP (acceptor) and anti-cAMP cryptate (donor) were added to each well for 60 min at RT gently shaking. Plates were read on Pherastar (BMG Labtech), fluorescence ratio 665/620 was calculated and EC50 determination was performed by fitting the curve of percent of control versus the log of the compound concentration using GraphPad Prism.

Sequence of Adenosine A2A receptor (Tag-lite Adenosine A2A labeled cells) (P29274 whole entry): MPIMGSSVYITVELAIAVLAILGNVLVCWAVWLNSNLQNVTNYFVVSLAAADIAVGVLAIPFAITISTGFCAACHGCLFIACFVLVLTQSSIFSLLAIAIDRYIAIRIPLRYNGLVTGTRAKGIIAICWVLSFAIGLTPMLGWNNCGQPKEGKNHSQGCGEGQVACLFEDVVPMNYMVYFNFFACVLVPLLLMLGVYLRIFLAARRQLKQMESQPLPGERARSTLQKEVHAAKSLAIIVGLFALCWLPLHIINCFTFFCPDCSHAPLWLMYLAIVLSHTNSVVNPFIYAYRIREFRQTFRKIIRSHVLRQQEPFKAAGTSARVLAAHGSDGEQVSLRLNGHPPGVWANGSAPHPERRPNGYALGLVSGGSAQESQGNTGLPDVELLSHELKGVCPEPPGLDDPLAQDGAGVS
Sequence of human adenosine A2B receptor (P29275 whole entry): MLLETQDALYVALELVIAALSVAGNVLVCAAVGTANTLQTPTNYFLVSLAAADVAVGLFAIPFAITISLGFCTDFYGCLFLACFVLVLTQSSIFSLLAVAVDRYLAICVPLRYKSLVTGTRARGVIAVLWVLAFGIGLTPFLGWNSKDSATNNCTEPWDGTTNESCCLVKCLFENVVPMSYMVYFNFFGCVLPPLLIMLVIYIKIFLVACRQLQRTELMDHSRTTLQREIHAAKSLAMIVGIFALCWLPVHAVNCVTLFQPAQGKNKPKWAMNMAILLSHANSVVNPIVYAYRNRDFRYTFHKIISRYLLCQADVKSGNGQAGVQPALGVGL

Row | SMILES | Ki [1] | EC50 [2]
1 | N#Cc1cccc(-c2nc(N)c3nn(Cc4ncccc4F)nc3c2-c2ccc3nccnc3c2)c1 [Example 37, 3-(4-amino-2-((3-fluoropyridin-2-yl)methyl)-7-(quinoxalin-6-yl)-2H-[1,2,3]triazolo[4,5-c]pyridin-6-yl)benzonitrile] | ≤ 10 nM | 10 to 100 nM
2 | Cc1cccc(Cn2nc3c(N)nc(-c4cccc(C#N)c4)c(-c4ccncn4)c3n2)n1 [Example 24, 3-(4-amino-2-((6-methylpyridin-2-yl)methyl)-7-(pyrimidin-4-yl)-2H-[1,2,3]triazolo[4,5-c]pyridin-6-yl)benzonitrile] | ≤ 10 nM | ≤ 10 nM
3 | Cn1nccc1-c1c(-c2cccc(C#N)c2F)nc(N)c2nn(Cc3ccccn3)nc12 [Example 39, 3-(4-amino-7-(1-methyl-1H-pyrazol-5-yl)-2-(pyridin-2-ylmethyl)-2H-[1,2,3]triazolo[4,5-c]pyridin-6-yl)-2-fluorobenzonitrile] | ≤ 10 nM | ≤ 10 nM
4 | CCn1nccc1-c1c(-c2cccc(C#N)c2)nc(N)c2nn(Cc3ccccn3)cc12 [Example 9, 3-(7-amino-4-(1-ethyl-1H-pyrazol-5-yl)-2-(pyridin-2-ylmethyl)-2H-pyrazolo[3,4-c]pyridin-5-yl)benzonitrile] | ≤ 10 nM | ≤ 10 nM
5 | Cc1cnccc1-c1c(-c2cccc(C#N)c2)nc(N)c2nn(Cc3ccccn3)nc12 [Example 19, 3-(4-amino-7-(3-methylpyridin-4-yl)-2-(pyridin-2-ylmethyl)-2H-[1,2,3]triazolo[4,5-c]pyridin-6-yl)benzonitrile] | ≤ 10 nM | ≤ 10 nM
6 | CCn1nccc1-c1c(-c2cccc(C#N)c2)nc(N)c2nn(Cc3ncccc3F)cc12 [Example 14, 3-(7-amino-4-(1-ethyl-1H-pyrazol-5-yl)-2-((3-fluoropyridin-2-yl)methyl)-2H-pyrazolo[3,4-c]pyridin-5-yl)benzonitrile] | ≤ 10 nM | ≤ 10 nM
7 | N#Cc1cccc(-c2nc(N)c3nn(Cc4ccccn4)nc3c2-c2ccc3nccnc3c2)c1F [Example 43, 3-(4-amino-2-(pyridin-2-ylmethyl)-7-(quinoxalin-6-yl)-2H-[1,2,3]triazolo[4,5-c]pyridin-6-yl)-2-fluorobenzonitrile] | ≤ 10 nM | 100 to 1000 nM
8 | Cc1ncoc1-c1c(-c2cccc(C#N)c2)nc(N)c2nn(C(C)c3ccccn3)nc12 (stereo not drawn) [Example 46, 3-(4-amino-7-(4-methyloxazol-5-yl)-2-(1-(pyridin-2-yl)ethyl)-2H-[1,2,3]triazolo[4,5-c]pyridin-6-yl)benzonitrile] | ≤ 10 nM | ≤ 10 nM
9 | CC(c1ccccn1)n1nc2c(N)nc(-c3cccc(C#N)c3)c(-c3ccncn3)c2n1 (stereo not drawn) [Example 47, 3-(4-amino-2-(1-(pyridin-2-yl)ethyl)-7-(pyrimidin-4-yl)-2H-[1,2,3]triazolo[4,5-c]pyridin-6-yl)benzonitrile] | ≤ 10 nM | 100 to 1000 nM
10 | CC(C)n1nccc1-c1c(-c2cccc(C#N)c2F)nc(N)c2nn(Cc3ccccn3)nc12 [Example 40, 3-(4-amino-7-(1-isopropyl-1H-pyrazol-5-yl)-2-(pyridin-2-ylmethyl)-2H-[1,2,3]triazolo[4,5-c]pyridin-6-yl)-2-fluorobenzonitrile] | ≤ 10 nM | ≤ 10 nM
11 | Cc1cccc(Cn2nc3c(N)nc(-c4cccc(C#N)c4)c(-c4ocnc4C)c3n2)n1 [Example 29, 3-(4-amino-7-(4-methyloxazol-5-yl)-2-((6-methylpyridin-2-yl)methyl)-2H-[1,2,3]triazolo[4,5-c]pyridin-6-yl)benzonitrile] | ≤ 10 nM | ≤ 10 nM
12 | Cc1ncoc1-c1c(-c2cccc(C#N)c2)nc(N)c2nn(CCc3ccccn3)nc12 [Example 48, 3-(4-amino-7-(4-methyloxazol-5-yl)-2-(2-(pyridin-2-yl)ethyl)-2H-[1,2,3]triazolo[4,5-c]pyridin-6-yl)benzonitrile] | ≤ 10 nM | 10 to 100 nM
